Read-outs that look alike come from different tables or passages of the source.
Columns and labels:
Type in all cases: biochemical
PDE1A = PDE1A (Homo sapiens (Human), UniProt P54750); experiment: biochemical
Excerpt: (§1) Table 1 lists the IC50 value for inhibition of PDE1 by the compounds of the invention. […] PDE1 assays are described in the Experimental Section.

PDE1C = PDE1C (Homo sapiens (Human), UniProt Q14123); experiment: biochemical
Excerpt: as §1

PDE1B = PDE1B (Homo sapiens (Human), UniProt Q01064); experiment: PDE1 inhibition assay (PDE1B); details: 15 nM tritium labelled cAMP, 1 hr at room temperature, SPA beads
Sequence of PDE1B (Q01064 whole entry): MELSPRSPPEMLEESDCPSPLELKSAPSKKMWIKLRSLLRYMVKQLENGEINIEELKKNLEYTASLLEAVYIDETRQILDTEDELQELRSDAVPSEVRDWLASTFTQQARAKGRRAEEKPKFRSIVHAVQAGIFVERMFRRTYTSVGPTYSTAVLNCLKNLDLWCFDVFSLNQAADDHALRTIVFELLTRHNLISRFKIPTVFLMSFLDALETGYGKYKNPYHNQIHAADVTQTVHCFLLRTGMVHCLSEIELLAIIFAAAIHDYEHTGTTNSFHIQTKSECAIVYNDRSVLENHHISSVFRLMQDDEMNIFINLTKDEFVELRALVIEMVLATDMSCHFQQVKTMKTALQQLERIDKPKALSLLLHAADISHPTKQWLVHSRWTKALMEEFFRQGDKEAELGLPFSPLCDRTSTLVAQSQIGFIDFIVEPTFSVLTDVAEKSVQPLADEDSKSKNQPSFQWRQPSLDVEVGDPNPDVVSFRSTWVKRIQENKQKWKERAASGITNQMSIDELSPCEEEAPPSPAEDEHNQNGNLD
Excerpt: as §1

[1] = 15 nM tritium labelled cAMP, 1 hr at room temperature, SPA beads

Sequence of PDE1C (Q14123 whole entry): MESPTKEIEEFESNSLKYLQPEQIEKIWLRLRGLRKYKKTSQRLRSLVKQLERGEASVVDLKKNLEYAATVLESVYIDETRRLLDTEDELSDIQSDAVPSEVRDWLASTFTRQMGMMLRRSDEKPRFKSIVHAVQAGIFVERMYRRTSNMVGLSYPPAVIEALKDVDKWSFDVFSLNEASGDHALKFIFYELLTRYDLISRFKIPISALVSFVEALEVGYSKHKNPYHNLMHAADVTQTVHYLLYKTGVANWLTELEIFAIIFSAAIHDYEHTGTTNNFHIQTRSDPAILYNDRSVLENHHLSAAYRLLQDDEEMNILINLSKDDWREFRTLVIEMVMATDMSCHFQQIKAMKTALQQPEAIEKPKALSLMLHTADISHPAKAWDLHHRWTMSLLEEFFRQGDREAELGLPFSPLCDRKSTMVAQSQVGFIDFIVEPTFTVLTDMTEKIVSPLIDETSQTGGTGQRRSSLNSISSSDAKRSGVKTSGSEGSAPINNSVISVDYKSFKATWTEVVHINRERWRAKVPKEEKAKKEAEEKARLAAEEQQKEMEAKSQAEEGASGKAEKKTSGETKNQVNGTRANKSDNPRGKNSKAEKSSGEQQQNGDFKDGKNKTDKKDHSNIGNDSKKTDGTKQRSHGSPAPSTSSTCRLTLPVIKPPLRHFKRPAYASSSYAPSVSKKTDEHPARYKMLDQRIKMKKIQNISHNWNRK
Sequence of PDE1A (P54750 whole entry): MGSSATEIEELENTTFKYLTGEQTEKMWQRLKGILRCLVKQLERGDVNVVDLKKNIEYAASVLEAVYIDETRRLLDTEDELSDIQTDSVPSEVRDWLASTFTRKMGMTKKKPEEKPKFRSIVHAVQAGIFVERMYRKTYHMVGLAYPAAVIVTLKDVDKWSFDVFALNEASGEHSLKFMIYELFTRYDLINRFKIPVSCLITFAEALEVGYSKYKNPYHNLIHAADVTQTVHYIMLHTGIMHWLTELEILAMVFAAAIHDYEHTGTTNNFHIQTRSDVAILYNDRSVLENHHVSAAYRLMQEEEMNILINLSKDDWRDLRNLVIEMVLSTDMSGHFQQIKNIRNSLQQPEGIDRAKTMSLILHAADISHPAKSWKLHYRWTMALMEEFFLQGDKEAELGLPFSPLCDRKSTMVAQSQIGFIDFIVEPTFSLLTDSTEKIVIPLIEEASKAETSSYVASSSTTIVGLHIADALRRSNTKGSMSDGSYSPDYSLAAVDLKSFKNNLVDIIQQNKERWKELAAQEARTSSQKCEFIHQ

SMILES	IC50 (PDE1A; [1])	IC50 (PDE1C; [1])	IC50 (PDE1B; read-out: PDE1B, IC50)	IC50 (PDE1B; PDE1B, IC50 (nM))	further results
CCOc1ncccc1-c1cc(NCc2cnn(C)c2)c2c(n1)c(CF)nn2C(C)C [Example 199, 5-(2-ethoxypyridin-3-yl)-3-(fluoromethyl)-1-isopropyl-N-((1-methyl-1H-pyrazol-4-yl)methyl)-1H-pyrazolo[4,3-b]pyridin-7-amine]	7.4 nM	26 nM	0.75 nM	–	–
CCOc1ncccc1-c1cc(NCc2ncc(C)o2)c2c(n1)c(C)nn2C(C)C [Example 38, 5-(2-ethoxy-3-pyridyl)-1-isopropyl-3-methyl-N-[(5-methyloxazol-2-yl)methyl]pyrazolo[4,3-b]pyridin-7-amine]	1.1 nM	13 nM	0.24 nM	–	–
CCOc1ncccc1-c1cc(NCc2cc(C)[nH]n2)c2c(n1)c(C)nn2C(C)CC (single isomer, unassigned) [Example 131, 5-(2-ethoxy-3-pyridyl)-3-methyl-1-[1-methylpropyl]-N-[(5-methyl-1H-pyrazol-3-yl)methyl]pyrazolo[4,3-b]pyridin-7-amine]	–	–	–	0.042 nM	–
CCOc1ncccc1-c1cc(NCc2cn(C)cn2)c2c(n1)c(C)nn2C(C)CC (single isomer, unassigned) [Example 132, 5-(2-ethoxy-3-pyridyl)-3-methyl-N-[(1-methylimidazol-4-yl)methyl]-1-[1-methylpropyl]pyrazolo[4,3-b]pyridin-7-amine]	–	–	–	0.045 nM	–
CCOc1ncccc1-c1cc(NCc2cc(CF)on2)c2c(n1)c(C)nn2C(C)C [Example 166, 5-(2-ethoxy-3-pyridyl)-N-[[5-(fluoromethyl)isoxazol-3-yl]methyl]-1-isopropyl-3-methyl-pyrazolo[4,3-b]pyridin-7-amine]	–	–	0.16 nM	–	–
CCOc1ncccc1-c1cc(NCc2noc(C)n2)c2c(n1)c(C)nn2C(C)CC (single isomer, unassigned) [Example 128, 5-(2-ethoxy-3-pyridyl)-3-methyl-N-[(5-methyl-1,2,4-oxadiazol-3-yl)methyl]-1-[1-methylpropyl]pyrazolo[4,3-b]pyridin-7-amine]	–	–	–	0.26 nM	–
Cc1nn(C(C)C)c2c(NCc3cnn(C)c3)cc(-c3cccn(C)c3=O)nc12 [Example 49, 3-(1-isopropyl-3-methyl-7-(((1-methyl-1H-pyrazol-4-yl)methyl)amino)-1H-pyrazolo[4,3-b]pyridin-5-yl)-1-methylpyridin-2(1H)-one]	–	420 nM	20 nM	–	–
CCOc1ncccc1-c1cc(NCc2nc(C)co2)c2c(n1)c(C)nn2C(C)C [Example 50, 5-(2-ethoxypyridin-3-yl)-1-isopropyl-3-methyl-N-((4-methyloxazol-2-yl)methyl)-1H-pyrazolo[4,3-b]pyridin-7-amine 2,2,2-trifluoroacetate]	9 nM	–	0.5 nM	–	–
CCOc1ncccc1-c1cc(NCc2cnn(C(F)F)c2)c2c(n1)c(C)nn2C(C)C [Example 165, N-[[1-(difluoromethyl)pyrazol-4-yl]methyl]-5-(2-ethoxy-3-pyridyl)-1-isopropyl-3-methyl-pyrazolo[4,3-b]pyridin-7-amine]	–	–	–	5.9 nM	IC50 (PDE1A): 73 nM
Cc1sccc1-c1cc(NCc2cnn(C)c2)c2c(n1)c(C)nn2C(C)C [Example 65, 1-isopropyl-3-methyl-N-[(1-methylpyrazol-4-yl)methyl]-5-(2-methyl-3-thienyl)pyrazolo[4,3-b]pyridin-7-amine]	7.9 nM	–	1.2 nM	–	–
CCOc1ncccc1-c1cc(NCc2ncccn2)c2c(n1)c(C)nn2C(C)C [Example 74, 5-(2-ethoxy-3-pyridyl)-1-isopropyl-3-methyl-N-(pyrimidin-2-ylmethyl)pyrazolo[4,3-b]pyridin-7-amine]	2.1 nM	8.1 nM	–	–	–
CCOc1ncccc1-c1cc(NCc2cc(C)n(C)n2)c2c(cnn2C(C)C)n1 [Example 44, N-[(1,5-dimethylpyrazol-3-yl)methyl]-5-(2-ethoxy-3-pyridyl)-1-isopropyl-pyrazolo[4,3-b]pyridin-7-amine]	19 nM	70 nM	–	–	–
CCOc1ncccc1-c1cc(NCc2cnn(C)c2)c2c(n1)c(C)nn2C(C)C [Example 9, 5-(2-ethoxypyridin-3-yl)-1-isopropyl-3-methyl-N-((1-methyl-1H-pyrazol-4-yl)methyl)-1H-pyrazolo[4,3-b]pyridin-7-amine]	2.6 nM	17 nM	–	–	–
Cc1coc(-c2cc(NCc3cnn(C)c3)c3c(n2)c(C)nn3C(C)C)n1 [Example 202, 1-isopropyl-3-methyl-N-((1-methyl-1H-pyrazol-4-yl)methyl)-5-(4-methyloxazol-2-yl)-1H-pyrazolo[4,3-b]pyridin-7-amine]	92 nM	170 nM	–	–	–
CCOc1ncccc1-c1cc(NCc2ccncn2)c2c(n1)c(C)nn2C(C)C [Example 73, 5-(2-ethoxy-3-pyridyl)-1-isopropyl-3-methyl-N-(pyrimidin-4-ylmethyl)pyrazolo[4,3-b]pyridin-7-amine]	81 nM	140 nM	–	–	–
CCOc1ncccc1-c1cc(NCc2nnn(C)n2)c2c(n1)c(C)nn2C(C)CC (single isomer, unassigned) [Example 127, 5-(2-ethoxy-3-pyridyl)-3-methyl-1-[1-methylpropyl]-N-[(2-methyltetrazol-5-yl)methyl]pyrazolo[4,3-b]pyridin-7-amine]	–	–	–	0.31 nM	–
CCOc1ncccc1-c1cc(NCc2ncn(C)n2)c2c(n1)c(C)nn2C(C)CC (single isomer, unassigned) [Example 121, 5-(2-ethoxy-3-pyridyl)-3-methyl-1-[1-methylpropyl]-N-[(1-methyl-1,2,4-triazol-3-yl)methyl]pyrazolo[4,3-b]pyridin-7-amine]	–	–	–	0.47 nM	–
Cc1nn(C(C)C)c2c(NCc3cnn(C)c3)cc(-c3cccnc3N(C)C)nc12 [Example 201, 5-[2-(dimethylamino)-3-pyridyl]-1-isopropyl-3-methyl-N-[(1-methylpyrazol-4-yl)methyl]pyrazolo[4,3-b]pyridin-7-amine]	–	–	230 nM	–	–
CCOc1ncccc1-c1cc(OCc2cnc(C)o2)c2c(n1)c(C)nn2C(C)C [Example 72, 5-[[5-(2-ethoxy-3-pyridyl)-1-isopropyl-3-methyl-pyrazolo[4,3-b]pyridin-7-yl]oxymethyl]-2-methyl-oxazole]	14 nM	39 nM	–	–	–
CCOc1ncccc1-c1cc(NCc2nc[nH]n2)c2c(n1)c(C)nn2C(C)C [Example 98, 5-(2-ethoxy-3-pyridyl)-1-isopropyl-3-methyl-N-(1H-1,2,4-triazol-3-ylmethyl)pyrazolo[4,3-b]pyridin-7-amine]	–	21 nM	0.58 nM	–	–
CCOc1ncccc1-c1cc(NCc2nnco2)c2c(n1)c(C)nn2C(C)C [Example 59, 5-(2-ethoxy-3-pyridyl)-1-isopropyl-3-methyl-N-(1,3,4-oxadiazol-2-ylmethyl)pyrazolo[4,3-b]pyridin-7-amine]	55 nM	120 nM	–	–	–
CCOc1ncccc1-c1cc(NCc2cncc(OC)c2)c2c(n1)c(C)nn2C(C)CC (single isomer, unassigned; enantiomer 2) [Example 125, 5-(2-ethoxy-3-pyridyl)-N-[(5-methoxy-3-pyridyl)methyl]-3-methyl-1-[1-methylpropyl]pyrazolo[4,3-b]pyridin-7-amine, enantiomer 2]	–	–	–	0.32 nM	–
CCCOc1ncccc1-c1cc(NCc2cn[nH]c2)c2c(n1)c(C)nn2C(C)C [Example 196, 1-isopropyl-3-methyl-5-(2-propoxy-3-pyridyl)-N-(1H-pyrazol-4-ylmethyl)pyrazolo[4,3-b]pyridin-7-amine]	18 nM	27 nM	–	–	–
CCOc1ncccc1-c1cc(NCc2nccc(C)n2)c2c(n1)c(C)nn2C(C)C [Example 75, 5-(2-ethoxy-3-pyridyl)-1-isopropyl-3-methyl-N-[(4-methylpyrimidin-2-yl)methyl]pyrazolo[4,3-b]pyridin-7-amine]	9.9 nM	33 nM	–	–	–
CCOc1ncccc1-c1cc(NCc2nc(C)cs2)c2c(n1)c(C)nn2C(C)C [Example 29, 5-(2-ethoxypyridin-3-yl)-1-isopropyl-3-methyl-N-((4-methylthiazol-2-yl)methyl)-1H-pyrazolo[4,3-b]pyridin-7-amine]	–	–	1.1 nM	–	–
CCOc1ncccc1-c1cc(NCc2cnc(C)o2)c2c(n1)c(C)nn2C(C)CC (single isomer, unassigned) [Example 133, 5-(2-ethoxy-3-pyridyl)-3-methyl-N-[(2-methyloxazol-5-yl)methyl]-1-[1-methylpropyl]pyrazolo[4,3-b]pyridin-7-amine]	–	–	–	1.3 nM	–
CCOc1ncccc1-c1cc(NCc2cc[nH]n2)c2c(n1)c(C)nn2C(C)CC (single isomer, unassigned) [Example 119, 5-(2-ethoxy-3-pyridyl)-3-methyl-1-[1-methylpropyl]-N-(1H-pyrazol-3-ylmethyl)pyrazolo[4,3-b]pyridin-7-amine]	–	–	–	0.56 nM	IC50 (PDE1C): 29 nM
Cc1nn(C(C)C)c2c(NCc3cccnc3C(F)(F)F)cc(-c3ccc[nH]c3=O)nc12 [Example 193, 3-[1-isopropyl-3-methyl-7-[[2-(trifluoromethyl)-3-pyridyl]methylamino]pyrazolo[4,3-b]pyridin-5-yl]-1H-pyridin-2-one]	320 nM	880 nM	–	–	–
CCOc1ncccc1-c1cc(NCc2ccc(=O)n(C)c2)c2c(n1)c(C)nn2C(C)C [Example 45]	–	–	0.62 nM	–	–
CCOc1ncccc1-c1cc(NCc2cc[nH]n2)c2c(cnn2C(C)CC)n1 (single isomer, unassigned) [Example 137, 5-(2-ethoxy-3-pyridyl)-1-[1-methylpropyl]-N-(1H-pyrazol-3-ylmethyl)pyrazolo[4,3-b]pyridin-7-amine]	180 nM	–	–	–	IC50 (PDE1C): 340 nM
